Patent publication US20090093423A2, “NOVEL 2-SUBSTITUTED METHYL PENAM DERIVATIVES” (Orchid Chemicals and Pharmaceuticals Limited, priority 2006, published 2009)

Tests used:
K. pneumoniae MRO 11007 = assay: MIC, Agar Dilution Method; format: cell-based; conditions: strain 11007 (uncharacterized-ESBL clinical strain); inhibitor 1 μg/mL
Method: (§1) The novel compounds were tested for the in vitro antibacterial activities by the Agar Dilution Method as specified in documents published by NCCLS, now CLSI, USA. (National Committee for Clinical Laboratory Standards (NCCLS). 2003. Approved standard M7-A6. NCCLS, Villanova, Pa.).
(§2) Tazo was also dissolved in same buffer to get a solution of, e.g., 1 mg/mL. Novel penam derivatives described herein were dissolved in water to get a solution of, e.g., 1 mg/mL.
(§3) The novel compounds and Tazo were also tested individually. The bacterial inoculum was prepared by picking 3 to 5 well-isolated bacterial colonies with the same morphological appearance from an 18-24 h old culture and adjusting the turbidity of the saline suspension to 0.5 McFarland Turbidity Standard equivalent to a bacterial population of 1.5×10^8 colony forming units (CFU) per mL of suspension. The suspension was diluted 1:10 in saline (i.e. 0.5 mL suspension+4.5 mL saline) to get a bacterial population of 1.5×10^7 CFU/mL as inoculum. […] The inoculated petridishes were incubated at 35° C. in an ambient atmosphere for 16-20 h.

A. baumanii 14501 = assay: MIC, Agar Dilution Method; format: cell-based; conditions: inhibitor 1 μg/mL
Method: as §1, §2, §3

P. aeruginosa 15020 = assay: MIC, Agar Dilution Method; format: cell-based; conditions: inhibitor 1 μg/mL
Method: as §1, §2, §3

K. pneumoniae MRO 11008 = assay: MIC, Agar Dilution Method; format: cell-based; conditions: strain 11008 (uncharacterized-ESBL clinical strain); inhibitor 1 μg/mL
Method: as §1, §2, §3

K. pneumoniae 11010 = assay: MIC, Agar Dilution Method; format: cell-based; conditions: inhibitor 1 μg/mL
Method: as §1, §2, §3

K. pneumoniae 11012 = assay: MIC, Agar Dilution Method; format: cell-based; conditions: inhibitor 1 μg/mL
Method: as §1, §2, §3

E. coli 10004 = assay: MIC, Agar Dilution Method; format: cell-based; conditions: inhibitor 1 μg/mL
Method: as §1, §2, §3

E. coli 10003 = assay: MIC, Agar Dilution Method; format: cell-based; conditions: inhibitor 1 μg/mL
Method: as §1, §2, §3

E. cloacae 11801 = assay: MIC, Agar Dilution Method; format: cell-based; conditions: inhibitor 1 μg/mL
Method: as §1, §2, §3

E. coli MRO 10002 = assay: MIC, Agar Dilution Method; format: cell-based; conditions: strain 10002 (uncharacterized-ESBL clinical strain); inhibitor 1 μg/mL
Method: as §1, §2, §3

K. pneumoniae 11006 = assay: MIC, Agar Dilution Method; format: cell-based; conditions: strain 11006 (uncharacterized-ESBL clinical strain); inhibitor 1 μg/mL
Method: as §1, §2, §3

K. pneumoniae 11009 = assay: MIC, Agar Dilution Method; format: cell-based; conditions: strain 11009 (uncharacterized-ESBL clinical strain); inhibitor 1 μg/mL
Method: as §1, §2, §3

E. cloacae 11802 = assay: MIC, Agar Dilution Method; format: cell-based; conditions: inhibitor 1 μg/mL
Method: as §1, §2, §3

P. aeruginosa ATCC 27853 = assay: MIC, Agar Dilution Method; format: cell-based; conditions: inhibitor 1 μg/mL
Method: as §1, §2, §3

[1] = system: M. catarrhalis ATCC 43617; assay: MIC, Agar Dilution Method; format: cell-based; conditions: inhibitor 1 μg/mL
Method: as §1, §2, §3

[2] = system: M. catarrhalis ATCC 43627; assay: MIC, Agar Dilution Method; format: cell-based; conditions: inhibitor 1 μg/mL
Method: as §1, §2, §3

E. coli 10001 = assay: MIC, Agar Dilution Method; format: cell-based; conditions: strain 10001 (uncharacterized-ESBL clinical strain); inhibitor 1 μg/mL
Method: as §1, §2, §3

[3] = system: K. pneumoniae ATCC 700603; assay: MIC, Agar Dilution Method; format: cell-based; conditions: for MIC of Piperacillin with different concentrations of Tazo or compound of Example 1: K. pneumoniae 700603, SHV-18
Method: as §1, §2, §3

C. freundii 12301 = assay: MIC, Agar Dilution Method; format: cell-based; conditions: inhibitor 1 μg/mL
Method: as §1, §2, §3

M. morganii 13701 = assay: MIC, Agar Dilution Method; format: cell-based; conditions: inhibitor 1 μg/mL
Method: as §1, §2, §3

M. morganii 13702 = assay: MIC, Agar Dilution Method; format: cell-based; conditions: inhibitor 1 μg/mL
Method: as §1, §2, §3

E. coli ATCC 25922 = assay: MIC, Agar Dilution Method; format: cell-based; conditions: inhibitor 1 μg/mL
Method: as §1, §2, §3

S. odonifera 13801 = assay: MIC, Agar Dilution Method; format: cell-based; conditions: inhibitor 1 μg/mL
Method: as §1, §2, §3

P. aeruginosa 15021 = assay: MIC, Agar Dilution Method; format: cell-based; conditions: inhibitor 1 μg/mL
Method: as §1, §2, §3

C. sedlakii 12303 = assay: MIC, Agar Dilution Method; format: cell-based; conditions: inhibitor 1 μg/mL
Method: as §1, §2, §3

E. coli MRO 10006 [4] = assay: MIC, Agar Dilution Method; format: cell-based; conditions: strain 10006 (uncharacterized-ESBL clinical strain); inhibitor 1 μg/mL
Method: as §1, §2, §3

P. aeruginosa 15019 = assay: MIC, Agar Dilution Method; format: cell-based; conditions: inhibitor 1 μg/mL
Method: as §1, §2, §3

E. coli MRO 10007 = assay: MIC, Agar Dilution Method; format: cell-based; conditions: strain 10007 (uncharacterized-ESBL clinical strain); inhibitor 1 μg/mL
Method: as §1, §2, §3

E. coli MRO 10006 [5] = assay: In vivo efficacy, infected mice; conditions: Swiss albino mice infected with E. coli MRO 10006; Piperacillin:inhibitor 4:1; 7-day survival
Method: The efficacy studies were performed as described earlier (Kuck et al, 1989, Antimicrob. Agents. Chemother. 33(11): 1964-1969). Briefly, Swiss albino mice, 20+2 g, from in-house breeding facility were challenged by the intraperitoneal injection of bacterial suspensions in 0.5 mL of hog gastric mucin (10 to 100 50% lethal doses). […] All the untreated control animals died within 48 h of infection. In each experiment, in-house Tazo was used as an inhibitor control in four doses. Median (50%) effective dose (ED50) were determined by applying the Reed and Muench's method of the 7-day survival ratios.

[6] = system: ESBLs types SHV-3 and SHV-4; conditions: Bryson and Brogden, 1994; cited from earlier work
[7] = Intravenous pharmacokinetics in mice; format: in vivo, Swiss mice; conditions: mouse, in vivo, iv
Source text: Blood samples were collected at different time points. These samples were processed and analyzed by HPLC.

With `C[C@]1(Cn2ccnn2)[C@H](C(=O)O)N2C(=O)C[C@H]2S1(=O)=O` [Tazo] the “MIC of Piperacillin with Tazo or compounds described herein at 1 μg/mL” value (“MIC of Piperacillin … at 1 μg/mL” below) (K. pneumoniae MRO 11007) was over 128 µg/mL, the “MIC of Piperacillin … at 1 μg/mL” value (A. baumanii 14501) was 8 µg/mL and the “MIC of Piperacillin … at 1 μg/mL” value (P. aeruginosa 15020) was 64 µg/mL. For the same compound, the “MIC of Piperacillin … at 1 μg/mL” value (K. pneumoniae MRO 11008) was over 128 µg/mL, the “MIC of Piperacillin … at 1 μg/mL” value (K. pneumoniae 11010) was 2 µg/mL and the “MIC of Piperacillin … at 1 μg/mL” value (K. pneumoniae 11012) was 2 µg/mL. The “MIC of Piperacillin … at 1 μg/mL” value (E. coli 10004) was 16 µg/mL, the “MIC of Piperacillin … at 1 μg/mL” value (E. coli 10003) was 32 µg/mL and the “MIC of Piperacillin … at 1 μg/mL” value (E. cloacae 11801) was 2 µg/mL. The “MIC of Piperacillin … at 1 μg/mL” value (E. coli MRO 10002) was 128 µg/mL, the “MIC of Piperacillin … at 1 μg/mL” value (K. pneumoniae 11006) was 32 µg/mL and the “MIC of Piperacillin … at 1 μg/mL” value (K. pneumoniae 11009) was 16 µg/mL. The “MIC of Piperacillin … at 1 μg/mL” value (E. cloacae 11802) was 64 µg/mL, the “MIC of Piperacillin … at 1 μg/mL” value (P. aeruginosa ATCC 27853) was 4 µg/mL and the “MIC of Piperacillin … at 1 μg/mL” value [1] was under 0.25 µg/mL. The “MIC of Piperacillin … at 1 μg/mL” value [2] was under 0.25 µg/mL, the “MIC of Piperacillin … at 1 μg/mL” value (E. coli 10001) was 16 µg/mL and the “MIC of Piperacillin with different concentrations of Tazo or compound of Example 1” value ([3]; inhibitor 1 μg/mL) was 16 µg/mL. For the same compound, the “MIC of Piperacillin with different concentrations of Tazo or compound of Example 1” value ([3]; inhibitor 2 μg/mL) was 16 µg/mL, the “MIC of Piperacillin with different concentrations of Tazo or compound of Example 1” value ([3]; inhibitor 4 μg/mL) was 16 µg/mL and the “MIC of Piperacillin … at 1 μg/mL” value ([3]; K. pneumoniae ATCC 700603, inhibitor 1 μg/mL) was 16 µg/mL. The “MIC of Piperacillin … at 1 μg/mL” value (C. freundii 12301) was 16 µg/mL, the “MIC of Piperacillin … at 1 μg/mL” value (M. morganii 13701) was 16 µg/mL and the “MIC of Piperacillin … at 1 μg/mL” value (M. morganii 13702) was under 0.25 µg/mL. The “MIC of Piperacillin … at 1 μg/mL” value (E. coli ATCC 25922) was 2 µg/mL, the “MIC of Piperacillin … at 1 μg/mL” value (S. odonifera 13801) was 2 µg/mL and the “MIC of Piperacillin … at 1 μg/mL” value (P. aeruginosa 15021) was 32 µg/mL. For the same compound, the “MIC of Piperacillin … at 1 μg/mL” value (C. sedlakii 12303) was 1 µg/mL, the “MIC of Piperacillin … at 1 μg/mL” value (E. coli MRO 10006 [4]) was 2 µg/mL and the “MIC of Piperacillin … at 1 μg/mL” value (P. aeruginosa 15019) was 32 µg/mL. The “MIC of Piperacillin … at 1 μg/mL” value (E. coli MRO 10007) was 1 µg/mL, the “ED50 of Piperacillin in combination with inhibitor” value (E. coli MRO 10006 [5]) was 37.22 mg/kg b.w and the “activity against ESBLs types SHV-3 and SHV-4” value [6] was “inactive”. It also gave an Elimination half-life [7] of 16.1 min.
